Literature values, collected in paper PMC5915681 (PLoS ONE, 2018).

Set-up: method as in PMID 24450858, PMID 24450857

Structure (SMILES): CC[C@H](Nc1ncnc2[nH]cnc12)c1nc2cccc(F)c2c(=O)n1-c1ccccc1 [idelalisib, Idelalisib]
- side effects: hepatotoxicity and gastrointestinal toxicity
